Assay results reported in patent US9777005B2 (Takeda Pharmaceutical Company Limited, priority 2012, dated 2017).

Molecular target: T1, human M1 receptor (hCHRM1) (Homo sapiens, UniProt P11229)
T1 construct: expressed in transfected cells; host or cells: CHO-K1
T1 sequence (P11229 1-460): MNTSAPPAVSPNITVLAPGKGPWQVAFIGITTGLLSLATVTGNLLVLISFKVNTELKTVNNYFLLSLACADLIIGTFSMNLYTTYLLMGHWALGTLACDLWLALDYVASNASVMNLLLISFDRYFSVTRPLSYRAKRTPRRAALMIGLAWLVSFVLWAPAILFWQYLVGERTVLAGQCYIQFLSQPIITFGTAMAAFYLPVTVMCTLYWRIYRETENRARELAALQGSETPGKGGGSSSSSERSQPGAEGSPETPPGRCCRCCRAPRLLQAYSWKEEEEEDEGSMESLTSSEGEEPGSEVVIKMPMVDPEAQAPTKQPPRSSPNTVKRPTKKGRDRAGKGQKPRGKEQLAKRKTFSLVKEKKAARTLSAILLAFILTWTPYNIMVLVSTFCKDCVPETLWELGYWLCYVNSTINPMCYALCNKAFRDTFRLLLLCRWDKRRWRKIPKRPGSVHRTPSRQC
Experiment: Measurement of M1 receptor positive allosteric modulator (M1PAM) activity, calcium fluorescence (FLIPRtetra) in CHO-K1 cells in the presence of acetylcholine at EC20
Type: cell-based
Conditions: in the presence of acetylcholine at EC20 (final 0.6 nM), CHO-K1 cells expressing hCHRM1; for EC50: inflection point of M1PAM activity, read-out: IP value; for activity (%) at 10 μM: test compound 10 μM
Method: Measurement of M1 Receptor Positive Allosteric Modulator (M1PAM) Activity
The activity of a test compound in the presence of acetylcholine at EC20 concentration (final concentration 0.6 nM), which affords an action corresponding to 20% of the maximum activity, was measured as PAM activity. The method is as follows. CHO-K1 cells forcibly expressing a human M1 receptor (hCHRM1) were plated on a 384-well black clear bottom plate (BD Falcon) at 5,000 cells/well, and cultured in an incubator at 37° C., 5% CO2 for 1 day. The medium in the cell plate was removed, and assay buffer A (Recording medium (DOJINDO LABORATORIES), 0.1% BSA (Wako Pure Chemical Industries, Ltd.), 2.5 μg/mL Fluo-4 AM (DOJINDO LABORATORIES), 0.08% Pluronic F127 (DOJINDO LABORATORIES), 1.25 mM probenecid (DOJINDO LABORATORIES)) containing a calcium indicator was added at 30 μL/well. The cells were left standing in the incubator at 37° C., 5% CO2 for 30 min, and further left standing at room temperature for 30 min. A test compound prepared by diluting with assay buffer B (HBSS (Invitrogen), 20 mM HEPES (Invitrogen), 0.1% BSA) containing 2.4 nM acetylcholine was added at 10 μL/well, and the fluorescence was measured by FLIPRtetra (Molecular Devices) for 1 min every 1 second. With the definition that the amount of change in the fluorescence on addition of acetylcholine (final concentration 1 μM) is 100% and that on addition of DMSO instead of a test compound is 0%, the activity (%) of the test compound and the inflection point in the concentration-dependent curve of the test compound were calculated as IP values.

Row | EC50 [µM] | activity (%) at 10 μM [%] | Compound
1 | 0.018 | 91 | O=C1c2c(cccc2O[C@@H]2CCOC[C@H]2O)CN1Cc1ccc(F)cc1F (single isomer, unassigned) [Example 299, 1,5-anhydro-2-deoxy-3-O-(2-(2,4-difluorobenzyl)-3-oxo-2,3-dihydro-1H-isoindol-4-yl)-threo-pentitol]
2 | 0.32 | 115 | O=C1c2c(OCC3CCCO3)ccnc2CN1Cc1ccc(-n2cccn2)cc1 (stereo not drawn) [Example 60, 6-(4-(1H-pyrazol-1-yl)benzyl)-4-((tetrahydrofuran-2-yl)methoxy)-6,7-dihydro-5H-pyrrolo[3,4-b]pyridin-5-one]
3 | 0.034 | 91 | COCc1ccc(F)c(Oc2nccc3c2C(=O)N(Cc2ccc(-c4ccnc(C)c4)cc2)C3)c1 [Example 291, 4-(2-fluoro-5-(methoxymethyl)phenoxy)-2-(4-(2-methylpyridin-4-yl)benzyl)-1,2-dihydro-3H-pyrrolo[3,4-c]pyridin-3-one]
4 | 0.07 | 100 | Cc1ccc(Oc2nccc3c2C(=O)N(Cc2ccc(C(N)=O)c(F)c2)C3)c(F)c1 [Example 440, 2-fluoro-4-((4-(2-fluoro-4-methylphenoxy)-3-oxo-1,3-dihydro-2H-pyrrolo[3,4-c]pyridin-2-yl)methyl)benzamide]
5 | 0.07 | 99 | CC(C)n1cc(-c2ccc(CN3Cc4cccc(Oc5c(F)cc(C#N)cc5F)c4C3=O)cn2)cn1 [Example 382, 3,5-difluoro-4-((2-((6-(1-isopropyl-1H-pyrazol-4-yl)pyridin-3-yl)methyl)-3-oxo-2,3-dihydro-1H-isoindol-4-yl)oxy)benzonitrile]
6 | 0.0091 | 104 | Cn1cc(-c2ccc(CN3Cc4cccc(O[C@H]5CCCCC[C@@H]5O)c4C3=O)cc2)cn1 (relative stereo) [Example 3, 7-((trans-2-hydroxycycloheptyl)oxy)-2-(4-(1-methyl-1H-pyrazol-4-yl)benzyl)isoindolin-1-one]
7 | 0.03 | 105 | Cn1ccc(-c2ccc(CN3Cc4ncnc(Oc5ccc(C(F)F)cc5F)c4C3=O)cc2)n1 [Example 310, 4-(4-(difluoromethyl)-2-fluorophenoxy)-6-(4-(1-methyl-1H-pyrazol-3-yl)benzyl)-6,7-dihydro-5H-pyrrolo[3,4-d]pyrimidin-5-one]
8 | 0.0021 | 94 | Cc1nn(C)cc1-c1ccc(CN2Cc3ccnc(O[C@H]4CCCC[C@@H]4O)c3C2=O)cc1 (relative stereo) [Example 267, 2-(4-(1,3-dimethyl-1H-pyrazol-4-yl)benzyl)-4-((trans-2-hydroxycyclohexyl)oxy)-1,2-dihydro-3H-pyrrolo[3,4-c]pyridin-3-one]
9 | 0.077 | 91 | Cc1cc(-c2ccc(CN3Cc4ccnc(Oc5c(C)cc(F)cc5F)c4C3=O)cc2)cnn1 [Example 358, 4-(2,4-difluoro-6-methylphenoxy)-2-(4-(6-methylpyridazin-4-yl)benzyl)-1,2-dihydro-3H-pyrrolo[3,4-c]pyridin-3-one]
10 | 0.0091 | 95 | Cc1cn(-c2ccc(CN3Cc4ccnc(Oc5ccc(C(F)(F)F)cc5F)c4C3=O)cc2)cn1 [Example 418, 4-(2-fluoro-4-(trifluoromethyl)phenoxy)-2-(4-(4-methyl-1H-imidazol-1-yl)benzyl)-1,2-dihydro-3H-pyrrolo[3,4-c]pyridin-3-one]
11 | 0.045 | 100 | Cc1cc(-c2ccc(CN3Cc4ccnc(OCC5CCOC5)c4C3=O)cc2)ccn1.Cl (stereo not drawn) [Example 266, 2-(4-(2-methylpyridin-4-yl)benzyl)-4-((tetrahydrofuran-3-yl)methoxy)-1,2-dihydro-3H-pyrrolo[3,4-c]pyridin-3-one hydrochloride]
12 | 0.024 | 96 | Cc1nn(C)cc1-c1ccc(CN2Cc3ccnc(OCC4CCOC4)c3C2=O)cc1 (stereo not drawn) [Example 265, 2-(4-(1,3-dimethyl-1H-pyrazol-4-yl)benzyl)-4-((tetrahydrofuran-3-yl)methoxy)-1,2-dihydro-3H-pyrrolo[3,4-c]pyridin-3-one]
13 | 0.028 | 100 | CCc1ccc(Oc2nccc3c2C(=O)N(Cc2ccc(C(N)=O)c(F)c2)C3)c(F)c1 [Example 445, 4-((4-(4-ethyl-2-fluorophenoxy)-3-oxo-1,3-dihydro-2H-pyrrolo[3,4-c]pyridin-2-yl)methyl)-2-fluorobenzamide]
14 | 0.032 | 114 | Cn1cc(-c2ccc(CN3Cc4cccc(O[C@H]5CCCC(F)(F)[C@@H]5O)c4C3=O)cc2)cn1 (relative stereo) [Example 7, 7-((trans-3,3-difluoro-2-hydroxycyclohexyl)oxy)-2-(4-(1-methyl-1H-pyrazol-4-yl)benzyl)isoindolin-1-one]
15 | 0.27 | 90 | O=C1c2c(cccc2OCC2CCCO2)CN1Cc1ccc(-n2cccn2)cc1 (stereo not drawn) [Example 53, 2-(4-(1H-pyrazol-1-yl)benzyl)-7-((tetrahydrofuran-2-yl)methoxy)isoindolin-1-one]
16 | 0.094 | 118 | O=C1c2c(ccc(F)c2O[C@H]2CCCC[C@@H]2O)CN1Cc1ccc(-n2cccn2)cc1 (relative stereo) [Example 228, 6-fluoro-7-((trans-2-hydroxycyclohexyl)oxy)-2-(4-(1H-pyrazol-1-yl)benzyl)isoindolin-1-one]
17 | 0.044 | 91 | Cc1cc(-c2ccc(CN3Cc4ccnc(Oc5cc(CO)ccc5F)c4C3=O)cc2)ccn1 [Example 290, 4-(2-fluoro-5-(hydroxymethyl)phenoxy)-2-(4-(2-methylpyridin-4-yl)benzyl)-1,2-dihydro-3H-pyrrolo[3,4-c]pyridin-3-one]
18 | 0.01 | 92 | NC(=O)c1ccc(CN2Cc3cccc(O[C@H]4CCCC[C@@H]4O)c3C2=O)cc1 (relative stereo) [Example 34, 4-((7-((trans-2-hydroxycyclohexyl)oxy)-1-oxo-1,3-dihydro-2H-isoindol-2-yl)methyl)benzamide]
19 | 0.047 | 106 | Cn1cc(-c2ccc(CN3Cc4cccc(OCC(=O)N5CCCCC5)c4C3=O)cc2)cn1 [Example 16, 2-(4-(1-methyl-1H-pyrazol-4-yl)benzyl)-7-(2-oxo-2-(piperidin-1-yl)ethoxy)isoindolin-1-one]
20 | 0.09 | 96 | C[C@@H](O)[C@@H](C)Oc1nccc2c1C(=O)N(Cc1ccc(Cl)cc1)C2 [Example 423, 2-(4-chlorobenzyl)-4-(((2R,3R)-3-hydroxybutan-2-yl)oxy)-1,2-dihydro-3H-pyrrolo[3,4-c]pyridin-3-one]
21 | 0.056 | 97 | CCc1ccc(Oc2nccc3c2C(=O)N(Cc2ccc(C(=O)NC)nc2)C3)c(F)c1 [Example 453, 5-((4-(4-ethyl-2-fluorophenoxy)-3-oxo-1,3-dihydro-2H-pyrrolo[3,4-c]pyridin-2-yl)methyl)-N-methylpyridine-2-carboxamide]
22 | 0.0072 | 108 | Cc1cc(-c2ccc(CN3Cc4ccnc(O[C@H]5CCC[C@@H]5O)c4C3=O)cc2)ccn1 (relative stereo) [Example 76, 4-((trans-2-hydroxycyclopentyl)oxy)-2-(4-(2-methylpyridin-4-yl)benzyl)-1,2-dihydro-3H-pyrrolo[3,4-c]pyridin-3-one]
23 | 0.085 | 107 | Cl.N#Cc1cccc(F)c1Oc1cccc2c1C(=O)N(Cc1ccc(-c3ccn[nH]3)cc1)C2 [Example 42, 3-fluoro-2-((3-oxo-2-(4-(1H-pyrazol-5-yl)benzyl)-2,3-dihydro-1H-isoindol-4-yl)oxy)benzonitrile hydrochloride]
24 | 0.023 | 108 | Cc1cc(-c2ccc(CN3Cc4ccnc(OCC5CCCO5)c4C3=O)cc2)cnn1 (stereo not drawn) [Example 326, 2-(4-(6-methylpyridazin-4-yl)benzyl)-4-((tetrahydrofuran-2-yl)methoxy)-1,2-dihydro-3H-pyrrolo[3,4-c]pyridin-3-one]
